From article PMC9474474, “Determination of pharmacokinetics and tissue distribution of a novel lutetium-labeled PSMA-targeted ligand, ^177Lu-DOTA-PSMA-GUL, in rats by using LC–MS/MS” (Scientific Reports, 2022)

Assay: Stability in rat plasma, urine, feces and 12 tissues (LC–MS/MS validation)
Format: in vitro ADME
Conditions: for Stability Freeze-thaw: 4 cycles; for Stability Autosampler: 4 °C for 24 h; for Stability Long-term: -70 °C for two weeks; for Stability Short-term: room temperature for 4 h
Experimental: Analytical validation data including stability and process efficiency are shown in Supplementary Tables 3 and 4. […] The process efficiency in each biological matrix is generally consistent (Supplementary Table 4). […] For plasma samples, the dilution integrity was evaluated for a 10- and 20-fold dilution of QC samples at 40,000 ng/mL, which was two times higher than ULOQ, with blank matrix. The accuracy for dilution integrity was 105.56% and 102.21%, while precision was 1.03% and 2.39% for tenfold and 20-fold dilution, respectively (n = 3, each).
Supplementary Table 3. Stability (%) of 175Lu-DOTA-PSMA-GUL in the rat plasma, urine, feces,
Matrix Concentration Short-term Long-term Freeze-thaw Autosampler
(ng/mL) (n=4) (n=4) (n=4) (n=4)

[1] = rat small intestine, 4,000 ng/mL

Structure (SMILES): O=C([O-])CN1CCN(CC(=O)[O-])CCN(CC(=O)[O-])C(Cc2ccc(NC(=S)NCCCC[C@H](NC(=O)N[C@@H](CCC(=O)O)C(=O)O)C(=O)O)cc2)CN(CC(=O)[O-])CC1.[Lu+3] (stereo partly drawn) [^175Lu-DOTA-PSMA-GUL, Lutetium labeled-1,4,7,10-tetraazacyclododecane-1,4,7,10-tetraacetic acid (DOTA)-PSMA-GUL]
- Stability Freeze-thaw (rat brain, 400 ng/mL): 96.03 ± 3.73%
- Stability Autosampler (rat brain, 400 ng/mL): 96.57 ± 0.76%
- Stability Long-term (rat brain, 400 ng/mL): 94.77 ± 3.27%
- Stability Short-term (rat brain, 400 ng/mL): 92.98 ± 2.86%
- Stability Freeze-thaw (rat brain, 4,000 ng/mL): 102.05 ± 3.19%
- Stability Autosampler (rat brain, 4,000 ng/mL): 90.60 ± 1.22%
- Stability Long-term (rat brain, 4,000 ng/mL): 95.22 ± 2.73%
- Stability Short-term (rat brain, 4,000 ng/mL): 98.51 ± 2.55%
- Stability Freeze-thaw (rat fat, 400 ng/mL): 91.54 ± 1.36%
- Stability Autosampler (rat fat, 400 ng/mL): 95.57 ± 4.47%
- Stability Long-term (rat fat, 400 ng/mL): 96.21 ± 4.47%
- Stability Short-term (rat fat, 400 ng/mL): 98.86 ± 3.38%
- Stability Freeze-thaw (rat fat, 4,000 ng/mL): 99.64 ± 2.85%
- Stability Autosampler (rat fat, 4,000 ng/mL): 95.05 ± 0.70%
- Stability Long-term (rat fat, 4,000 ng/mL): 94.41 ± 3.10%
- Stability Short-term (rat fat, 4,000 ng/mL): 96.74 ± 3.52%
- Stability Freeze-thaw (rat feces, 400 ng/mL): 104.54 ± 6.86%
- Stability Autosampler (rat feces, 400 ng/mL): 97.85 ± 3.82%
- Stability Long-term (rat feces, 400 ng/mL): 103.52 ± 1.25%
- Stability Short-term (rat feces, 400 ng/mL): 90.69 ± 6.38%
- Stability Freeze-thaw (rat feces, 4,000 ng/mL): 105.65 ± 2.20%
- Stability Autosampler (rat feces, 4,000 ng/mL): 104.03 ± 2.53%
- Stability Long-term (rat feces, 4,000 ng/mL): 101.50 ± 1.39%
- Stability Short-term (rat feces, 4,000 ng/mL): 104.76 ± 2.40%
- Stability Autosampler (rat heart, 400 ng/mL): 98.75 ± 4.29%
- Stability Long-term (rat heart, 400 ng/mL): 93.97 ± 1.45%
- Stability Short-term (rat heart, 400 ng/mL): 95.08 ± 10.83%
- Stability Freeze-thaw (rat heart, 4,000 ng/mL): 97.19 ± 8.21%
- Stability Autosampler (rat heart, 4,000 ng/mL): 92.56 ± 3.26%
- Stability Long-term (rat heart, 4,000 ng/mL): 93.50 ± 2.78%
- Stability Short-term (rat heart, 4,000 ng/mL): 91.74 ± 0.93%
- Stability Freeze-thaw (rat kidney, 400 ng/mL): 94.83 ± 2.49%
- Stability Autosampler (rat kidney, 400 ng/mL): 95.72 ± 4.19%
- Stability Long-term (rat kidney, 400 ng/mL): 95.92 ± 2.97%
- Stability Short-term (rat kidney, 400 ng/mL): 95.45 ± 3.51%
- Stability Freeze-thaw (rat kidney, 4,000 ng/mL): 94.30 ± 1.02%
- Stability Autosampler (rat kidney, 4,000 ng/mL): 97.98 ± 2.82%
- Stability Long-term (rat kidney, 4,000 ng/mL): 94.61 ± 2.50%
- Stability Short-term (rat kidney, 4,000 ng/mL): 98.14 ± 3.63%
- Stability Freeze-thaw (rat liver, 400 ng/mL): 95.93 ± 3.91%
- Stability Autosampler (rat liver, 400 ng/mL): 97.39 ± 3.47%
- Stability Long-term (rat liver, 400 ng/mL): 97.86 ± 1.87%
- Stability Short-term (rat liver, 400 ng/mL): 98.94 ± 5.66%
- Stability Freeze-thaw (rat liver, 4,000 ng/mL): 91.72 ± 2.23%
- Stability Autosampler (rat liver, 4,000 ng/mL): 92.47 ± 2.32%
- Stability Long-term (rat liver, 4,000 ng/mL): 91.83 ± 1.56%
- Stability Short-term (rat liver, 4,000 ng/mL): 91.39 ± 2.47%
- Stability Freeze-thaw (rat lung, 400 ng/mL): 96.40 ± 1.10%
- Stability Autosampler (rat lung, 400 ng/mL): 98.84 ± 7.51%
- Stability Long-term (rat lung, 400 ng/mL): 99.08 ± 2.59%
- Stability Short-term (rat lung, 400 ng/mL): 98.55 ± 4.32%
- Stability Freeze-thaw (rat lung, 4,000 ng/mL): 97.55 ± 0.70%
- Stability Autosampler (rat lung, 4,000 ng/mL): 102.00 ± 4.06%
- Stability Long-term (rat lung, 4,000 ng/mL): 95.79 ± 1.75%
- Stability Short-term (rat lung, 4,000 ng/mL): 96.87 ± 1.97%
- Stability Freeze-thaw (rat muscle, 400 ng/mL): 101.47 ± 2.25%
- Stability Autosampler (rat muscle, 400 ng/mL): 94.93 ± 2.73%
- Stability Long-term (rat muscle, 400 ng/mL): 99.56 ± 2.47%
- Stability Short-term (rat muscle, 400 ng/mL): 100.99 ± 2.76%
- Stability Freeze-thaw (rat muscle, 4,000 ng/mL): 94.67 ± 0.44%
- Stability Autosampler (rat muscle, 4,000 ng/mL): 98.62 ± 2.06%
- Stability Long-term (rat muscle, 4,000 ng/mL): 99.74 ± 4.41%
- Stability Short-term (rat muscle, 4,000 ng/mL): 99.13 ± 2.50%
- Stability Freeze-thaw (rat plasma, 80 ng/mL): 102.92 ± 2.77%
- Stability Autosampler (rat plasma, 80 ng/mL): 97.69 ± 3.09%
- Stability Long-term (rat plasma, 80 ng/mL): 100.61 ± 2.11%
- Stability Short-term (rat plasma, 80 ng/mL): 106.18 ± 0.41%
- Stability Freeze-thaw (rat plasma, 16,000 ng/mL): 98.68 ± 1.21%
- Stability Autosampler (rat plasma, 16,000 ng/mL): 102.82 ± 1.73%
- Stability Long-term (rat plasma, 16,000 ng/mL): 99.20 ± 0.51%
- Stability Short-term (rat plasma, 16,000 ng/mL): 101.14 ± 2.43%
- Stability Freeze-thaw (rat prostate, 400 ng/mL): 95.17 ± 3.44%
- Stability Autosampler (rat prostate, 400 ng/mL): 97.82 ± 2.46%
- Stability Long-term (rat prostate, 400 ng/mL): 95.50 ± 3.57%
- Stability Short-term (rat prostate, 400 ng/mL): 95.76 ± 1.48%
- Stability Freeze-thaw (rat prostate, 4,000 ng/mL): 99.85 ± 2.74%
- Stability Autosampler (rat prostate, 4,000 ng/mL): 96.30 ± 0.83%
- Stability Long-term (rat prostate, 4,000 ng/mL): 97.12 ± 3.90%
- Stability Short-term (rat prostate, 4,000 ng/mL): 99.30 ± 3.24%
- Stability Freeze-thaw (rat small intestine, 400 ng/mL): 99.15 ± 6.00%
- Stability Autosampler (rat small intestine, 400 ng/mL): 98.68 ± 2.52%
- Stability Long-term (rat small intestine, 400 ng/mL): 98.80 ± 2.76%
- Stability Short-term (rat small intestine, 400 ng/mL): 99.17 ± 2.35%
- Stability Freeze-thaw [1]: 100.54 ± 2.33%
- Stability Autosampler [1]: 104.13 ± 2.24%
- Stability Long-term [1]: 103.65 ± 4.10%
- Stability Short-term [1]: 102.12 ± 2.51%
- Stability Freeze-thaw (rat spleen, 400 ng/mL): 98.46 ± 3.74%
- Stability Autosampler (rat spleen, 400 ng/mL): 102.59 ± 1.80%
- Stability Long-term (rat spleen, 400 ng/mL): 97.10 ± 3.45%
- Stability Short-term (rat spleen, 400 ng/mL): 101.61 ± 2.41%
- Stability Freeze-thaw (rat spleen, 4,000 ng/mL): 104.53 ± 2.39%
- Stability Autosampler (rat spleen, 4,000 ng/mL): 102.93 ± 2.02%
- Stability Long-term (rat spleen, 4,000 ng/mL): 106.40 ± 3.85%
- Stability Short-term (rat spleen, 4,000 ng/mL): 104.24 ± 4.36%
- Stability Freeze-thaw (rat stomach, 400 ng/mL): 97.59 ± 1.68%
- Stability Autosampler (rat stomach, 400 ng/mL): 100.00 ± 4.55%
- Stability Long-term (rat stomach, 400 ng/mL): 99.72 ± 2.41%
- Stability Short-term (rat stomach, 400 ng/mL): 98.96 ± 4.28%
- Stability Freeze-thaw (rat stomach, 4,000 ng/mL): 92.47 ± 1.38%
- Stability Autosampler (rat stomach, 4,000 ng/mL): 93.61 ± 2.79%
- Stability Long-term (rat stomach, 4,000 ng/mL): 94.79 ± 3.41%
- Stability Short-term (rat stomach, 4,000 ng/mL): 96.98 ± 3.91%
- Stability Freeze-thaw (rat testis, 400 ng/mL): 107.18 ± 0.85%
- Stability Autosampler (rat testis, 400 ng/mL): 101.68 ± 6.54%
- Stability Long-term (rat testis, 400 ng/mL): 103.74 ± 3.80%
- Stability Short-term (rat testis, 400 ng/mL): 100.51 ± 3.98%
- Stability Freeze-thaw (rat testis, 4,000 ng/mL): 99.52 ± 0.96%
- Stability Autosampler (rat testis, 4,000 ng/mL): 97.56 ± 4.96%
- Stability Long-term (rat testis, 4,000 ng/mL): 94.96 ± 4.89%
- Stability Short-term (rat testis, 4,000 ng/mL): 101.72 ± 1.48%
- Stability Freeze-thaw (rat urine, 400 ng/mL): 105.67 ± 4.65%
- Stability Autosampler (rat urine, 400 ng/mL): 94.03 ± 2.84%
- Stability Long-term (rat urine, 400 ng/mL): 98.36 ± 1.67%
- Stability Short-term (rat urine, 400 ng/mL): 91.67 ± 2.58%
- Stability Freeze-thaw (rat urine, 16,000 ng/mL): 92.41 ± 1.12%
- Stability Autosampler (rat urine, 16,000 ng/mL): 104.69 ± 2.03%
- Stability Long-term (rat urine, 16,000 ng/mL): 100.28 ± 1.39%
- Stability Short-term (rat urine, 16,000 ng/mL): 106.46 ± 1.17%
- stability in each biological matrix (short-term, long-term, freeze–thaw and autosampler storage conditions): stable
